Patent publication US10544136B2, “Modulators of sphingosine phosphate receptors” (The Scripps Research Institute, priority 2008, dated 2020)
pEC50: −log10 of the molar value. Read-outs that look alike come from different tables or passages of the source.

Legend:
S1P3 = S1P3 (Homo sapiens (Human), UniProt Q99500); assay: S1P3 agonist assay (Ec50 S1P3Ag); assay type: cell-based; settings: read-out: Ec 50 (S1P3Ag); for EC50: unit μM
S1P1 = S1P1 (Homo sapiens (Human), UniProt P21453); assay: S1P1 agonist assay (Ec50 S1P1Ag); assay type: cell-based; settings: for EC50: unit μM/uM
Description: The exact dosage will depend upon the activity of the compound, mode of administration, on the therapy desired, form in which administered, the subject to be treated and the body weight of the subject to be treated, and the preference and experience of the physician or veterinarian in charge. S1P1 agonist bioactivity of the compounds of the invention can be determined by use of an in vitro assay system which measures the activation of S1P1, which can be expressed as EC50 values, as are well known in the art inhibitors of the invention can be determined by the method described in the Examples.

Chain of S1P3 (Q99500 whole entry, species assumed): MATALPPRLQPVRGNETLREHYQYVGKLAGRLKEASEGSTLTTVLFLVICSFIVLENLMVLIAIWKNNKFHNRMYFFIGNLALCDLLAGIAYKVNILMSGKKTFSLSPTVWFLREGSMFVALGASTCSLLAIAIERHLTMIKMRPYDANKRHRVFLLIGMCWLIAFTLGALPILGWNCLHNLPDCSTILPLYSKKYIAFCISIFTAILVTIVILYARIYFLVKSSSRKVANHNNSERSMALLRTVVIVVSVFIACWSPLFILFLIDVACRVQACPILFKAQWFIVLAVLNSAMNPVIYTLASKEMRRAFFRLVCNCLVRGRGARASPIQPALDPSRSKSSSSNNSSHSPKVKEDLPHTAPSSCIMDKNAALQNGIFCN
Chain of S1P1 (P21453 whole entry): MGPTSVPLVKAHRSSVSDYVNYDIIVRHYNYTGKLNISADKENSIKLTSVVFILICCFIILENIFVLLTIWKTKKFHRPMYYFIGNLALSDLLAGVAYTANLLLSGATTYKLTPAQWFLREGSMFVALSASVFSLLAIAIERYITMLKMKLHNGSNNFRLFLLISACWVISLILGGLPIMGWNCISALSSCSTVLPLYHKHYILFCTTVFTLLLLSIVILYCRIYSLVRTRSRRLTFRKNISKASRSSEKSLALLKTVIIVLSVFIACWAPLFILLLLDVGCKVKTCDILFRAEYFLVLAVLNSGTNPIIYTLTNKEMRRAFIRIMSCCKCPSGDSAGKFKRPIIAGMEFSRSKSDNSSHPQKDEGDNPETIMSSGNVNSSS

| SMILES | pEC50 (S1P3) | pEC50 (S1P1) | EC50 (S1P3) [µM] | EC50 (S1P1) [µM] |
| --- | --- | --- | --- | --- |
| CC(C)Cc1ccc(C(C)c2nc(-c3ccc(S(N)(=O)=O)cc3)no2)cc1 (stereo not shown) [Compound 16] | 5.92 | 8.48 | – | – |
| CCOc1ccc(-c2nc(-c3cccc4c3CCN4)no2)cc1OCC [Compound 123] | 6.28 | 9.70 | – | – |
| CCOc1ccc(-c2nc(-c3ccnc(CO)c3)no2)cc1OCC [Compound 209] | 6.03 | 9.85 | – | – |
| CCOc1ccc(-c2nc(-c3ccc(CO)nc3)no2)cc1OCC [Compound 214] | – | 7.80 | 13.5 | – |
| CC(C)Cc1ccc(C(C)c2nc(-c3ccncc3)no2)cc1 (stereo not shown) [Compound 55] | 6.35 | 6.95 | – | – |
| CCOc1ccc(-c2nc(-c3ccc(CO)cc3)no2)cc1OCC [Compound 186] | 6.22 | 8.38 | – | – |
| FC(F)(F)c1ccc(-c2noc(Cc3ccncc3)n2)cc1 [Compound 5] | 5.29 | – | – | 4.1 |
| CCOc1ccc(-c2nc(-c3cccc(CO)c3)no2)cc1OCC [Compound 187] | 5.82 | 8.15 | – | – |
| CCOc1ccc(-c2nc(-c3cccc4c3CCC4N3CC[C@@H](O)C3)no2)cc1OCC (stereo partly shown) [Compound 228] | 5.54 | 7.75 | – | – |
| CCOc1ccc(-c2nc(-c3ccnc(N)c3)no2)cc1OCC [Compound 36] | 6.41 | 8.77 | – | – |
| Cc1cncc(-c2noc(-c3ccc(-c4ccccc4)c(C(F)(F)F)c3)n2)c1 [Compound 62] | – | 8.30 | 24 | – |
| CCOc1ccc(-c2nc(-c3ccc(CCO)cc3)no2)cc1OCC [Compound 192] | 6.16 | 8.96 | – | – |
| CCOc1ccc(-c2nc(-c3ccc4[nH]ccc4c3)no2)cc1OCC [Compound 153] | 5.70 | 8.16 | – | – |
| CCOc1ccc(-c2nc(-c3ccc(CO)cc3C)no2)cc1OCC [Compound 201] | 6.15 | 9.30 | – | – |
| FC(F)(F)c1cc(Br)cc(-c2nc(-c3ccncc3)no2)c1 [Compound 106] | 5.10 | 7.20 | – | – |
| CCOc1ccc(-c2nc(-c3cccc4ccccc34)no2)cc1OCC [Compound 211] | – | 7.57 | 13.5 | – |
| CCCOc1ccc(-c2nc(-c3ccncc3)no2)cc1 [Compound 10] | 5.48 | 6.61 | – | – |
| CCOc1ccc(-c2nc(-c3cccc(CN(C)C)c3C)no2)cc1OCC [Compound 129] | 5.28 | 8.39 | – | – |
| CCOc1ccc(-c2nc(-c3cccc4c3CCC4N(C)C)no2)cc1OCC (stereo not shown) [Compound 217] | 7.87 | 7.61 | – | – |

| SMILES | pEC50 (S1P3) | pEC50 (S1P1) | EC50 (S1P3) [µM] | EC50 (S1P1) [µM] |
| --- | --- | --- | --- | --- |
| CCOc1ccc(-c2nc(-c3cncc(C)c3)no2)cc1OCC [Compound 58] | 5.47 | 7.93 | – | – |
| COc1cc(-c2nc(-c3cncc(C)c3)no2)ccc1C [Compound 74] | – | 6.22 | – | – |
| COc1cc(-c2noc(-c3cc(Cl)nc(Cl)c3)n2)ccc1C [Compound 45] | – | 5.83 | – | – |
| CCOc1ccc(-c2nc(-c3ccc4occc4c3)no2)cc1OCC [Compound 253] | – | 7.58 | – | – |
| Cc1cnccc1-c1noc(-c2ccc(C)c(C(F)(F)F)c2)n1 [Compound 68] | – | 7.42 | – | – |
| CCOc1ccc(-c2nc(-c3cccc4c3CCN4CCN(CC)CC)no2)cc1OCC [Compound 232] | – | 7.03 | – | – |
| CC(C)Oc1ccc(-c2ncc(-c3cccc4c3CCC4O)o2)cc1C#N (stereo not shown) [Compound 270] | – | 8.60 | – | – |
| CCOc1ccc(-c2nc(-c3ccc(CCN4CCCC4)cc3)no2)cc1OCC [Compound 191] | – | 7.27 | – | – |
| CCOc1ccc(-c2nc(-c3cccc(CO)c3C)no2)cc1OCC [Compound 177] | 6.11 | 9.10 | – | – |
| CCOc1ccc(-c2nc(-c3cccc4c3CCC4N3CC[C@@H](O)C3)no2)cc1OCC (stereo partly shown) [Compound 250] | – | 8.21 | – | – |
| CCOc1ccc(-c2nc(-c3ccnc(CN4CC[C@@H](O)C4)c3)no2)cc1OCC [Compound 235] | – | 7.09 | – | – |
| CCOc1ccc(-c2nc(-c3ccc4[nH]cc(CNCCN(C)C)c4c3)no2)cc1OCC [Compound 238] | – | 6.16 | – | – |
| CCOc1ccc(-c2nc(-c3ccnc4[nH]ccc34)no2)cc1OCC [Compound 167] | 5.66 | 8.66 | – | – |
| CCOc1ccc(-c2nc(-c3cccc4c3CCC4NCCO)no2)cc1C(F)(F)F (stereo not shown) [Compound 264, 2-(4-(5-(4-ethoxy-3-(trifluoromethyl)phenyl)-1,2,4-oxadiazol-3-yl)-2,3-dihydro-1H-inden-1-ylamino)ethanol] | – | 8.10 | – | – |
| CCOc1ccc(-c2nc(-c3ccc(CN4CCCC4)cc3C)no2)cc1OCC [Compound 125] | – | 6.77 | – | – |
| CCOc1ccc(-c2nc(-c3cccc(N)c3C)no2)cc1OCC [Compound 165] | – | 7.53 | – | – |
| CCOc1ccc(-c2nc(-c3nccc4ccccc34)no2)cc1OCC [Compound 219] | – | 7.89 | – | – |
| COc1cc(-c2noc(-c3ccncc3)n2)ccc1C [Compound 44] | – | 6.14 | – | – |

Further lines, results first:

| pEC50 (S1P3) | pEC50 (S1P1) | EC50 (S1P3) [µM] | EC50 (S1P1) [µM] | SMILES |
| --- | --- | --- | --- | --- |
| 6.08 | 9.28 | – | – | CCOc1ccc(-c2nc(-c3cccc4[nH]ccc34)no2)cc1OCC [Compound 110] |
| 5.46 | 6.58 | – | – | FC(F)(F)c1cc(-c2nc(-c3ccncc3)no2)cc(C(F)(F)F)c1 [Compound 104] |
| 5.57 | 7.19 | – | – | CCOc1cc(-c2nc(-c3ccncc3)no2)ccc1OC [Compound 50] |
| 5.46 | 5.48 | – | – | COc1cc(-c2noc(-c3ccnc(C)c3)n2)ccc1C [Compound 23] |
| 6.16 | 8.47 | – | – | CCOc1ccc(-c2nc(-c3cccc(CNCCO)c3C)no2)cc1OCC [Compound 251] |
| 5.62 | 8.23 | – | – | CCOc1ccc(-c2nc(-c3cccc4c3CCN4C)no2)cc1OCC [Compound 151] |
| – | 7.91 | 10 | – | CCOc1ccc(-c2nc(-c3ccc(CN(C)C)c(C)c3)no2)cc1OCC [Compound 203] |
| 5.88 | 9.11 | – | – | Nc1cc(-c2noc(-c3ccc(-c4ccccc4)c(C(F)(F)F)c3)n2)ccn1 [Compound 61] |
| 5.74 | 8.51 | – | – | CCOc1ccc(-c2nc(-c3ccc4c(c3)CCN4)no2)cc1OCC [Compound 154] |
| 5.25 | 7.97 | – | – | FC(F)(F)c1cc(-c2nc(-c3ccncc3)no2)ccc1-c1ccccc1 [Compound 59] |
| 5.68 | 8.22 | – | – | CCOc1ccc(-c2nc(-c3cccc(CN4CCCC4)c3C)no2)cc1OCC [Compound 152] |
| 6.10 | 9.00 | – | – | Cc1cnccc1-c1noc(-c2ccc(-c3ccccc3)c(C(F)(F)F)c2)n1 [Compound 60] |
| 6.11 | 6.57 | – | – | FC(F)(F)c1ccc(-c2noc(-c3ccnc(Cl)c3)n2)cc1 [Compound 7] |
| 5.70 | 7.93 | – | – | CCOc1ccc(-c2nc(-c3ccc(C)c(C)c3)no2)cc1OCC [Compound 184] |
| 6.18 | 8.43 | – | – | CCOc1ccc(-c2nc(-c3ccncc3)no2)cc1OCC [Compound 35] |
| – | 8.57 | – | – | CCOc1ccc(-c2nc(-c3ccnc(CNCCN(CC)CC)c3)no2)cc1OCC [Compound 226] |
| – | 7.34 | – | – | CCOc1ccc(-c2nc(-c3cccc(CN(C)C)c3)no2)cc1OCC [Compound 78] |

| pEC50 (S1P3) | pEC50 (S1P1) | EC50 (S1P3) [µM] | EC50 (S1P1) [µM] | SMILES |
| --- | --- | --- | --- | --- |
| – | 6.40 | – | – | Nc1cc(-c2nc(-c3ccc(S(N)(=O)=O)cc3)no2)ccn1 [Compound 18] |
| – | 5.51 | – | – | CCOc1ccc(-c2nc(-c3ccc4[nH]cc(CN(C)CCO)c4c3)no2)cc1OCC [Compound 240] |
| – | 6.52 | – | – | CCOc1ccc(-c2nc(-c3cccc4[nH]cc(CN5CC[C@H](O)C5)c34)no2)cc1OCC [Compound 230] |
| – | 5.08 | – | – | c1ccc(Cc2nc(-c3ccncc3)no2)cc1 [Compound 105] |
| – | 6.26 | – | – | COc1cc(-c2noc(-c3ccc(C#N)c(C)c3)n2)ccc1C [Compound 46] |
| 6.49 | 7.15 | – | – | COc1ccc(-c2nc(-c3ccncc3)no2)cc1OC1CCCC1 [Compound 54] |
| – | 6.07 | – | – | CCCCc1ccc(-c2nc(-c3ccncc3)no2)cc1 [Compound 51] |
| – | 6.54 | – | – | CCn1nc(C)cc1-c1nc(-c2ccncc2)no1 [Compound 57] |
| – | 6.61 | – | – | CCOc1ccc(-c2nc(-c3ccc(Br)c(C)c3)no2)cc1OCC [Compound 185] |
| – | 5.70 | – | – | CCOc1cccc(-c2nc(-c3cncc(C)c3)no2)c1 [Compound 66] |
| – | – | – | 12.3 | CC(C)(C)c1cc(-c2nc(-c3ccc(S(N)(=O)=O)cc3)no2)cc(C(C)(C)C)c1 [Compound 14] |
| – | 7.55 | – | – | CCOc1ccc(-c2nc(-c3cncc(C(=O)OC)c3)no2)cc1OCC [Compound 220] |
| 6.49 | 6.81 | – | – | CC(C)(C)c1cc(-c2nc(-c3ccncc3)no2)cc(C(C)(C)C)c1 [Compound 53] |
| – | 7.49 | – | – | CCOc1ccc(-c2nc(-c3cccc4[nH]cc(CNCCN(CC)CC)c34)no2)cc1OCC [Compound 204] |
| – | 7.97 | – | – | CCOc1ccc(-c2ncc(-c3ccncc3)o2)cc1OCC [Compound 268] |
| – | 6.04 | – | – | COc1cc(-c2noc(Cc3ccncc3)n2)ccc1C [Compound 42] |
